Test results as given in the supplement of paper PMC11919725.

Assays:
[1] = tested on: Jurkat; assay: confluency relative to DMSO, 18 h (ratio); higher = more viable
Summary of the method: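 Naive or CD3/CD28 Dynabead-activated (48 h) primary CD4+/CD8+ T cells, or Jurkat cells, received compound at 1 nM–10 µM for 18 h at 37 °C. Confluency was measured by IncuCyte phase-contrast imaging with the Basic Analyzer and normalised to the mean of the control wells. Imaging used 100 µl of suspension per well in 96-well plates with IncuCyte Cytotox Dye and alamarBlue, at ×10 with five images per well every hour for 3 h.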

[2] = tested on: Jurkat; assay: metabolic activity relative to DMSO, 18 h (ratio); higher = more viable
Summary of the method: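 Naive or CD3/CD28 Dynabead-activated (48 h) primary CD4+/CD8+ T cells, or Jurkat cells, received compound at 1 nM–10 µM for 18 h. Readout used alamarBlue at 10% v/v final, with fluorescence taken after 3.5 h. Metabolic activity is given relative to mean vehicle control values.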

[3] = tested on: Jurkat; assay: cytotoxicity relative to DMSO, 18 h (ratio); higher = less cell death (drugs called cytotoxic fall below 1)
Summary of the method: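 Cytotoxicity was measured by IncuCyte fluorescence imaging after confluency correction and normalisation to mean control values. Cells (Jurkat, or primary CD4+/CD8+ T cells that were naive or pre-activated 48 h with CD3/CD28 Dynabeads) received compound at 1 nM–10 µM in log10 steps for 18 h at 37 °C, 5% CO2. Imaging used ×10 magnification, five images per well, taken hourly over 3 h in 96-well plates with 250 nM final IncuCyte Cytotox Dye in 100 µl of suspension.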

Compound | confluency ([1]; 1 nM) | confluency ([1]; 10 nM) | confluency ([1]; 100 nM) | confluency ([1]; 1000 nM) | confluency ([1]; 10000 nM) | metabolic activity ([2]; 1 nM) | metabolic activity ([2]; 10 nM) | metabolic activity ([2]; 100 nM) | metabolic activity ([2]; 1000 nM) | metabolic activity ([2]; 10000 nM) | cytotoxicity ([3]; 1 nM) | cytotoxicity ([3]; 10 nM) | cytotoxicity ([3]; 100 nM) | cytotoxicity ([3]; 1000 nM) | cytotoxicity ([3]; 10000 nM)
CC(C)N(CC1OC(n2cnc3c(N)ncnc32)C(O)C1O)C1CC(CCc2nc3ccc(C(C)(C)C)cc3[nH]2)C1 (stereo not given) [Pinometostat] | 0.929 | 0.934 | 1.11 | 1.02 | 0.941 | 0.998 | 1.05 | 1.12 | 0.858 | 0.958 | 0.982 | 1.06 | 1.25 | 1.01 | 1
Nc1cccc2c1C(=O)N(C1CCC(=O)NC1=O)C2=O (stereo not given) [Pomalidomide] | 0.955 | 0.902 | 0.943 | 0.948 | 0.94 | 0.995 | 1.01 | 1.04 | 1.12 | 1.09 | 1.04 | 0.986 | 0.512 | 1.03 | 0.936
CC12C=CC(=O)C=C1CCC1C2C(=O)CC2(C)C1CCC2(O)C(=O)CO (stereo not given) [Prednisone] | 1.01 | 0.981 | 0.993 | 1.01 | 1.02 | 0.872 | 0.991 | 1.07 | 1.04 | 1.15 | 0.964 | 1.01 | 1.02 | 1.05 | 1.21
Cn1cc(CNCC2CCN(c3ncc(C(=O)NO)cn3)CC2)c2ccccc21 [Quisinostat] | 0.847 | 0.918 | 0.963 | 1.02 | 0.957 | 0.876 | 1.04 | 0.875 | 0.688 | 0.667 | 0.816 | 1.07 | 0.897 | 0.958 | 0.908
COc1ccc(F)c(F)c1C(=O)c1cnc(NC2CCN(S(C)(=O)=O)CC2)nc1N [R-547] | 1.07 | 1.18 | 1.04 | 1.04 | 1.01 | 1.09 | 1.02 | 1 | 0.739 | 0.134 | 1.01 | 0.934 | 1.08 | 1.04 | 1.04
COC1CC2CCC(C)C(O)(O2)C(=O)C(=O)N2CCCCC2C(=O)OC(C(C)CC2CCC(O)C(OC)C2)CC(=O)C(C)C=C(C)C(O)C(OC)C(=O)C(C)CC(C)C=CC=CC=C1C (stereo not given) [Rapamycin] | 1.01 | 0.98 | 0.933 | 0.902 | 0.81 | 0.859 | 0.948 | 0.789 | 0.77 | 0.742 | 0.973 | 1.02 | 1.05 | 0.913 | 0.831
Cn1nccc1Nc1nccc(-c2ccn(C(CO)c3ccc(Cl)c(F)c3)c(=O)c2)n1 (stereo not given) [Ravoxertinib] | 0.989 | 0.841 | 0.884 | 0.894 | 0.886 | 0.977 | 0.997 | 1.04 | 1.07 | 1.1 | 1.1 | 0.921 | 1 | 0.983 | 1.02
CN(C)C(=O)c1cc2cnc(Nc3ccc(N4CCNCC4)cn3)nc2n1C1CCCC1 [Ribociclib] | 1 | 0.964 | 1.09 | 1.06 | 1.14 | 0.887 | 0.874 | 0.862 | 0.879 | 0.856 | 0.914 | 0.883 | 1.01 | 0.984 | 1.06
O=C(CCCCCCNC(=O)c1cnc(N(c2ccccc2)c2ccccc2)nc1)NO [Ricolinostat] | 1.01 | 1 | 1.03 | 0.976 | 0.984 | 0.874 | 0.881 | 0.933 | 0.841 | 0.655 | 1.01 | 0.933 | 1.07 | 0.969 | 0.881
COc1cc(OC)c(C=CS(=O)(=O)Cc2ccc(OC)c(NCC(=O)O)c2)c(OC)c1 [Rigosertib] | 1.02 | 1.01 | 1.01 | 0.871 | 0.797 | 1.01 | 1.01 | 0.87 | 0.426 | 0.468 | 0.92 | 0.988 | 0.948 | 0.711 | 0.621
CN1CCC(c2c(O)cc(O)c3c(=O)cc(-c4ccccc4Cl)oc23)C1CO (stereo not given) [Riviciclib] | 1.07 | 1.04 | 0.985 | 0.866 | 1.03 | 1.04 | 0.872 | 0.754 | 0.6 | 0.242 | 0.627 | 0.605 | 1 | 0.783 | 1.04
CC=C1NC(=O)C2CSSCCC=CC(CC(=O)NC(C(C)C)C(=O)N2)OC(=O)C(C(C)C)NC1=O (stereo not given) [Romidepsin] | 0.987 | 1.07 | 1.02 | 1 | 1.03 | 1.1 | 0.839 | 0.703 | 0.539 | 0.042 | 0.904 | 0.961 | 0.914 | 1.03 | 1.06
CNCc1ccc(-c2[nH]c3cc(F)cc4c3c2CCNC4=O)cc1 [Rucaparib] | 1.06 | 1.03 | 1.04 | 1.07 | 0.931 | 0.926 | 0.952 | 0.981 | 0.996 | 0.973 | 1.06 | 1 | 1.04 | 1.07 | 0.899
CC(C)(C)c1cnc(CSc2cnc(NC(=O)C3CCNCC3)s2)o1 [SNS-032] | 1.13 | 1.09 | 1.08 | 1.13 | 1.17 | 0.778 | 0.953 | 0.979 | 0.192 | 0.167 | 1.06 | 1.06 | 1.06 | 0.66 | 0.657
